# Measured values as given in US20230233569A1 (Revolution Medicines, Inc., priority 2020, published 2023).
# Like-named read-outs stand apart in the source and are kept apart here.
# How the values were obtained:
# NCI-H358 (K-Ras G12C) = test: CellTiter-Glo cell viability assay, 5-day treatment; assay type: cell-based; details: Homo sapiens, NCI-H358, 120 h, 5-day treatment; read-out: H358 Cell Viability assay data (K-Ras G12C, IC50)
# Summary of the method: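 Five-day compound treatment of plated cells; luminescent read after ~30 min at RT. Percent-of-DMSO data fit to a four-parameter logistic model.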
# NRAS Q61K = NRAS Q61K (Homo sapiens, UniProt P01111+P62937, Q61K); test: Disruption of BRAF RBD interaction with Ras (FRET / MOA assay, with Cyclophilin A); assay type: biochemical; details: NRAS Q61K; read-out: NRAS Q61K FRET data IC50
# NRAS Q61K, sequence (P01111 whole entry Q61K, the tested form may be a part): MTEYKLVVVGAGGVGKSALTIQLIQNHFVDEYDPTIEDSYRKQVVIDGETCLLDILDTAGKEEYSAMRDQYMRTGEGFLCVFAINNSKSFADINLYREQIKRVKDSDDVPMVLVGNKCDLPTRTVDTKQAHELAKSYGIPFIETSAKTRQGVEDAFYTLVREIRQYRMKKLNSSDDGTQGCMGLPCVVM
# NRAS Q61K, sequence (P62937 whole entry, the tested form may be a part): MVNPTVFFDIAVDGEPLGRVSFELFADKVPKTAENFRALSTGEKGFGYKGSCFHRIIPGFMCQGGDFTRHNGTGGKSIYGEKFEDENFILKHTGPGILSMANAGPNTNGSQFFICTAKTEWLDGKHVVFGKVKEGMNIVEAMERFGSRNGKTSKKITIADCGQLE
# Excerpt: (§1) Disruption of B-Raf Ras-Binding Domain (BRAF^RBD) Interaction with K-Ras by Compounds of the Invention (Also Called a FRET Assay or an MOA Assay)
# (§2) Note—The following protocol describes a procedure for monitoring disruption of K-Ras G12C (GMP-PNP) binding to BRAF^RBD by a compound of the invention. This protocol may also be executed substituting other Ras proteins or nucleotides.
# (§3) The purpose of this biochemical assay was to measure the ability of test compounds to facilitate ternary complex formation between a nucleotide-loaded K-Ras isoform and Cyclophilin A; the resulting ternary complex disrupts binding to a BRAF^RBD construct, inhibiting K-Ras signaling through a RAF effector. Data is reported as IC50 values.
# (§4) In assay buffer containing 25 mM HEPES pH 7.3, 0.002% Tween20, 0.1% BSA, 100 mM NaCl and 5 mM MgCl2, tagless Cyclophilin A, His6-K-Ras-GMPPNP, and GST-BRAF^RBD were combined in a 384-well assay plate at final concentrations of 25 μM, 12.5 nM and 50 nM, respectively. Compound was present in plate wells as a 10-point 3-fold dilution series starting at a final concentration of 30 μM. After incubation at 25° C. for 3 hours, a mixture of Anti-His Eu-W1024 and anti-GST allophycocyanin was then added to assay sample wells at final concentrations of 10 nM and 50 nM, respectively, and the reaction incubated for an additional 1.5 hours. […] Compounds that facilitate disruption of a K-Ras:RAF complex were identified as those eliciting a decrease in the TR-FRET ratio relative to DMSO control wells.
# as §3, with “BRAF^RBDD” for “BRAF^RBD”
# KRAS G12S = KRAS G12S (Homo sapiens, UniProt P01116+P62937, G12S); test: Ras-Raf disruption / FRET / MOA assay (BRAF RBD); assay type: biochemical; details: with Cyclophilin A
# KRAS G12S, sequence (P01116 1-169 isoform P01116-2 G12S limits assumed): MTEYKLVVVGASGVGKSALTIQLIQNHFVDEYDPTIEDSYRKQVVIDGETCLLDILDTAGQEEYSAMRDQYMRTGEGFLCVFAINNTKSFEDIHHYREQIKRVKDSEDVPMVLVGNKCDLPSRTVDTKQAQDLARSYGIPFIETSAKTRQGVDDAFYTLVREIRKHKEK
# KRAS G12S, sequence (P62937 whole entry, the tested form may be a part): as the sequence (P62937 whole entry, the tested form may be a part) above
# Excerpt: (§5) Disruption of […] Ras-binding Domain (BRAF^RBD) Interaction with K-Ras by Compounds of the Invention (also Called a FRET Assay or an MOA Assay)
# (§6) Note—The following protocol describes a procedure for monitoring disruption of K-Ras G12C (GMP-PNP) binding to BRAF^RBD by a compound of the invention. This protocol may also be executed substituting other Ras proteins or nucleotides, such as K-Ras G12D and K-Ras G13D.
# as §3
# as §4, with “12.5 nM,” for “12.5 nM”, “of anti-His” for “of Anti-His”
# KRAS G13D = KRAS G13D (Homo sapiens, UniProt P01116+P62937, G13D); test: Ras-Raf disruption / FRET / MOA assay (BRAF RBD); assay type: biochemical; details: with Cyclophilin A
# KRAS G13D, sequence (P01116 1-169 isoform P01116-2 G13D limits assumed): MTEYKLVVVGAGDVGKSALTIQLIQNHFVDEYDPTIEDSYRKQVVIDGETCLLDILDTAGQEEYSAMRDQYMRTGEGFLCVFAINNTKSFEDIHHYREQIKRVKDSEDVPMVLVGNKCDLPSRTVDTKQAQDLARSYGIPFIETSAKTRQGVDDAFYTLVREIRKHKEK
# KRAS G13D, sequence (P62937 whole entry): as the sequence (P62937 whole entry, the tested form may be a part) above
# Excerpt: as §5, §6, §3
# as §4, with “12.5 nM,” for “12.5 nM”, “of anti-His” for “of Anti-His”
# KRAS G12V = KRAS G12V (Homo sapiens, UniProt P01116+P62937, G12V); test: Ras-Raf disruption / FRET / MOA assay (BRAF RBD); assay type: biochemical; details: with Cyclophilin A
# KRAS G12V, sequence (P01116 1-169 isoform P01116-2 G12V limits assumed): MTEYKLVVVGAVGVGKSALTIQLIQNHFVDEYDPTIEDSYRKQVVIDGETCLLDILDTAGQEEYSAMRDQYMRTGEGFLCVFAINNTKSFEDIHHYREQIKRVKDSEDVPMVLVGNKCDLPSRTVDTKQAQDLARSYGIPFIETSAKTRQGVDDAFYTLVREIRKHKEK
# KRAS G12V, sequence (P62937 whole entry): as the sequence (P62937 whole entry, the tested form may be a part) above
# Excerpt: as §5, §6, §3
# as §4, with “12.5 nM,” for “12.5 nM”, “of anti-His” for “of Anti-His”
# KRAS WT = KRAS WT (Homo sapiens, UniProt P01116+P62937); test: Ras-Raf disruption / FRET / MOA assay (BRAF RBD); assay type: biochemical; details: with Cyclophilin A
# KRAS WT, sequence (P01116 1-169 isoform P01116-2 limits assumed): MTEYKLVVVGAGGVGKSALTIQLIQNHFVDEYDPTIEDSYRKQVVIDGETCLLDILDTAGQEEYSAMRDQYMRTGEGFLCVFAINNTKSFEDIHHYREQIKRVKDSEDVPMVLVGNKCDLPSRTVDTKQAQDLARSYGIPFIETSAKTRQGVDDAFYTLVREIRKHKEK
# KRAS WT, sequence (P62937 whole entry): as the sequence (P62937 whole entry, the tested form may be a part) above
# Excerpt: as §5, §6, §3
# as §4, with “12.5 nM,” for “12.5 nM”, “of anti-His” for “of Anti-His”
# KRAS G12D = KRAS G12D (Homo sapiens, UniProt P01116+P62937, G12D); test: Ras-Raf disruption / FRET / MOA assay (BRAF RBD); assay type: biochemical; details: Ras-Raf disruption, with Cyclophilin A; read-out: KRAS G12D FRET data IC50
# KRAS G12D, sequence (P01116 1-169 isoform P01116-2 G12D limits assumed): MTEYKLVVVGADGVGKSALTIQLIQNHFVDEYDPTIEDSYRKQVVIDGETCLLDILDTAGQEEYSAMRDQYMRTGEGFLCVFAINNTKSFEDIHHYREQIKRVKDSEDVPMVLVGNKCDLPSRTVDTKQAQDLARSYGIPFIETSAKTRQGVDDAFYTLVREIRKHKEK
# KRAS G12D, sequence (P62937 whole entry): as the sequence (P62937 whole entry, the tested form may be a part) above
# Excerpt: as §5, §6, §3
# as §4, with “12.5 nM,” for “12.5 nM”, “of anti-His” for “of Anti-His”
# KRAS G13C = KRAS G13C (Homo sapiens, UniProt P01116+P62937, G13C); test: Ras-Raf disruption / FRET / MOA assay (BRAF RBD); assay type: biochemical; details: Ras-Raf disruption, with Cyclophilin A; read-out: KRAS G13C FRET data IC50
# KRAS G13C, sequence (P01116 1-169 isoform P01116-2 G13C limits assumed): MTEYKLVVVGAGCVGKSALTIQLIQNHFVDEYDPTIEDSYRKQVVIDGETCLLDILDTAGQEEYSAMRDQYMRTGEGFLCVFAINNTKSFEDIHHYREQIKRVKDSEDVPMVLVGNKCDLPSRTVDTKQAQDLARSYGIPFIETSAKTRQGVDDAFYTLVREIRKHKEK
# KRAS G13C, sequence (P62937 whole entry): as the sequence (P62937 whole entry, the tested form may be a part) above
# Excerpt: as §5, §6, §3
# as §4, with “12.5 nM,” for “12.5 nM”, “of anti-His” for “of Anti-His”
# NRAS Q61R = NRAS Q61R (Homo sapiens, UniProt P01111+P62937, Q61R); test: Disruption of BRAF RBD interaction with Ras (FRET / MOA assay, with Cyclophilin A); assay type: biochemical; details: NRAS Q61R; read-out: NRAS Q61R FRET data IC50
# NRAS Q61R, sequence (P01111 whole entry Q61R): as the sequence (P01111 whole entry Q61K, the tested form may be a part) above, with K61R counted along it
# NRAS Q61R, sequence (P62937 whole entry): as the sequence (P62937 whole entry, the tested form may be a part) above
# Excerpt: as §1, §2, §3, §4
# as §3, with “BRAF^RBDD” for “BRAF^RBD”
# [1] = Ras-Raf disruption, read-out: KRAS G12S FRET data IC50
# [2] = Ras-Raf disruption, read-out: KRAS G13D FRET data IC50
# [3] = Ras-Raf disruption, read-out: KRAS G12V FRET data IC50
# [4] = Ras-Raf disruption, read-out: KRAS WT FRET data IC50
IC50 (KRAS G12S; [1]) [µM],IC50 (KRAS G13D; [2]) [µM],IC50 (KRAS G12V; [3]) [µM],IC50 (KRAS WT; [4]) [µM],IC50 (KRAS G12D) [µM],Compound,other results
,,,,,"CCn1c(-c2cccnc2[C@H](C)OC)c2c3cc(ccc31)-c1csc(n1)C[C@H](NC(=O)[C@H](C(C)C)N(C)C(=O)N1CC(C(C)(C)O)C1)C(=O)N1CCC[C@H](N1)C(=O)OCC(C)(C)C2 (atropisomer, axis not shown) [Example A289]",IC50 (NCI-H358 (K-Ras G12C)): < 0.01 µM; IC50 (NRAS Q61K): 0.01 to 0.1 µM
> 10,> 10,,,,CCn1c(-c2cnccc2COC)c2c3cc(ccc31)-c1cccc(c1)C[C@H](NC(=O)[C@H](C(C)C)N(C)C(=O)CCN=C=NCCCSC)C(=O)N1CCC[C@H](N1)C(=O)OCC(C)(C)C2 [16 A and B],
> 10,,> 10,> 10,,CCn1c(-c2cnccc2COC)c2c3cc(ccc31)-c1cccc(c1)C[C@H](NC(=O)[C@H](C(C)C)N(C)C(=O)CCN=C=NCc1ccc(OC)cc1)C(=O)N1CCC[C@H](N1)C(=O)OCC(C)(C)C2 [18 A and B],
> 10,,> 10,> 10,,CCn1c(-c2cnccc2COC)c2c3cc(ccc31)-c1cccc(c1)C[C@H](NC(=O)[C@H](C(C)C)N(C)C(=O)CCN=C=NCc1ccccc1)C(=O)N1CCC[C@H](N1)C(=O)OCC(C)(C)C2 [19 A and B],
> 10,> 10,> 10,> 10,> 10,CCn1c(-c2cnccc2COC)c2c3cc(ccc31)-c1cccc(c1)C[C@H](NC(=O)[C@H](C(C)C)N(C)C(=O)CCN=C=Nc1ccccc1OC)C(=O)N1CCC[C@H](N1)C(=O)OCC(C)(C)C2 [20 A and B],
,,,,,CCn1c(-c2cnccc2COC)c2c3cc(ccc31)-c1cc(O)cc(c1)C[C@H](NC(=O)[C@H](C(C)C)N(C)C(=O)CN(C)C(=O)C1CN1)C(=O)N1CCC[C@H](N1)C(=O)OCC(C)(C)C2 (stereo partly shown) [32 A and B],"IC50 (KRAS G12V; KRAS G12V FRET data IC50, Ras-Raf disruption): > 10 µM; IC50 (KRAS G12S; KRAS G12S FRET data IC50, Ras-Raf disruption): > 10 µM; IC50 (KRAS WT; KRAS WT FRET data IC50, Ras-Raf disruption): > 10 µM; IC50 (KRAS G13D; KRAS G13D FRET data IC50, Ras-Raf disruption): 1 to 10 µM"
> 10,> 10,> 10,> 10,> 10,CCn1c(-c2cnccc2COC)c2c3cc(ccc31)-c1cccc(c1)C[C@H](NC(=O)[C@H](C(C)C)N(C)C(=O)CCN=C=NCc1ccc(OC)cc1OC)C(=O)N1CCC[C@H](N1)C(=O)OCC(C)(C)C2 [61 A and B],IC50 (KRAS G13C): > 10 µM
> 10,> 10,> 10,> 10,,CCn1c(-c2cnccc2COC)c2c3cc(ccc31)-c1cccc(c1)C[C@H](NC(=O)[C@H](C(C)C)N(C)C(=O)CCN=C=NCCc1cccs1)C(=O)N1CCC[C@H](N1)C(=O)OCC(C)(C)C2 [68 A and B],
,,1 to 10,,,CCn1c(-c2cnccc2COC)c2c3cc(ccc31)-c1cccc(c1)C[C@H](NC(=O)[C@H](C(C)C)N(C)C(=O)CCCN=C=NCCCOC)C(=O)N1CCC[C@H](N1)C(=O)OCC(C)(C)C2 [69 A and B],
> 10,> 10,> 10,> 10,,CCn1c(-c2cnccc2COC)c2c3cc(ccc31)-c1cccc(c1)C[C@H](NC(=O)[C@H](C(C)C)N(C)C(=O)[C@@H]1CCC(N=C=Nc3ccc(OC)cc3)C1)C(=O)N1CCC[C@H](N1)C(=O)OCC(C)(C)C2 (stereo partly shown) [70 A and B],
> 10,> 10,> 10,> 10,> 10,CCn1c(-c2cnccc2COC)c2c3cc(ccc31)-c1cccc(c1)C[C@H](NC(=O)[C@H](C(C)C)N(C)C(=O)C1CCC(N=C=Nc3ccc(OC)cc3)C1)C(=O)N1CCC[C@H](N1)C(=O)OCC(C)(C)C2 (stereo partly shown) [71 A and B],IC50 (KRAS G13C): > 10 µM
> 10,> 10,,,> 10,CCn1c(-c2cnccc2COC)c2c3cc(ccc31)-c1cccc(c1)C[C@H](NC(=O)[C@H](C(C)C)N(C)C(=O)CCN=C=NC(C)(C)C)C(=O)N1CCC[C@H](N1)C(=O)OCC(C)(C)C2 [79 A and B],
> 10,> 10,> 10,> 10,,CCn1c(-c2cnccc2COC)c2c3cc(ccc31)-c1cccc(c1)C[C@H](NC(=O)[C@H](C(C)C)N(C)C(=O)CCN=C=NCc1ccccc1C)C(=O)N1CCC[C@H](N1)C(=O)OCC(C)(C)C2 [82 A and B],IC50 (KRAS G13C): > 10 µM
,,,,,CCC[C@H]1CCN1C(=O)N[C@H]1Cc2nc(cs2)-c2ccc3c(c2)c(c(-c2cccnc2[C@H](C)OC)n3CC)CC(C)(C)COC(=O)[C@@H]2CCCN(N2)C1=O [Example A264],IC50 (NRAS Q61R): 0.1 to 1 µM
,,,,,CCn1c(-c2cccnc2[C@H](C)OC)c2c3cc(ccc31)-c1csc(n1)C[C@H](NC(=O)[C@H](C(C)C)N(C)C(=O)N1CCO[C@H](C)C1)C(=O)N1CCC[C@H](N1)C(=O)OCC(C)(C)C2 [Example A310],IC50 (NRAS Q61R): 0.01 to 0.1 µM

Compound,IC50 (KRAS G12S; [1]) [µM],IC50 (KRAS G13D; [2]) [µM],IC50 (KRAS G12V; [3]) [µM],IC50 (KRAS WT; [4]) [µM],IC50 (KRAS G12D) [µM],other results
CCn1c(-c2cnccc2COC)c2c3cc(ccc31)-c1cc(O)cc(c1)C[C@H](NC(=O)[C@H](C(C)C)N(C)C(=O)c1ccc(NC(=O)[C@H]3CN3)cn1)C(=O)N1CCC[C@H](N1)C(=O)OCC(C)(C)C2 [47 A and B],,,,,1 to 10,IC50 (KRAS G13C): 0.01 to 0.1 µM
